The values below come from patent US20210186972A1, “FORMULATIONS AND METHODS FOR THE PREVENTION AND TREATMENT OF TUMOR METASTASIS AND TUMORIGENESIS” (THE UNITED STATES OF AMERICA, AS REPRESENTED BY THE …, priority 2018, published 2021).

The IC90 is the concentration needed for an effect of 90%. By IC50 is commonly meant the midpoint of a concentration-inhibition curve.

Experiment [1] has as its system normal human fibroblast GM02153 cell line. As to the kind of experiment: UBF distribution (nucleolar capping) in normal fibroblasts. It is filed as cell-based. On the procedure:
The nucleolar disruption was reversible within 48 hours upon withdrawal of metarrestin (FIG. 47). Similar disruptions were observed among other treated cell lines, including PANC1 and PC3M cells (FIG. 48), primary tumor, and liver metastatic tissues in the PANC1 xenograft model (FIG. 21, right panels). […] The segregation of the nucleolar compartments observed by EM is believed to correspond to the nucleolar capping structures detected by immunofluorescence of nucleolar proteins (FIGS. 21A-21C, 23, and 50). The coupling of nucleolar segregation with PNC loss was confirmed across several cell lines by immunolabeling with antibodies against the nucleolar Pol I transcription initiation factors, UBF (upstream binding transcription factor) (FIGS. 23 and 50), or Pol I polymerase, RPA194 (FIG. 51). Factors involved in ribosome maturation, such as fibrillarin or NOPP140 (FIGS. 51 and 52) were similarly reorganized. In contrast, UBF distribution was not changed when the normal human fibroblast GM02153 cell line was treated with metarrestin at the same concentration (FIG. 53).

Experiment [2] concerns PC3M cells overexpressing eEF1A2. As to the kind of experiment: PNC disassembly in eEF1A2-overexpressing cells. It is filed as cell-based. As to conditions: vs control vector. The text has this:
FIG. 39 is a graph showing that overexpression of eEF1A2 in PC3M cells increased the IC50 of metarrestin for PNC disassembly. PNC prevalence (%) is on the y-axis and the log [M] metarrestin is on the […]. eEF1A2 is shown by circles and the control vector is shown by squares.
eEF1As are multi-functional proteins, implicated in translation elongation, actin bundling, nuclear transport, and tRNA export. To evaluate whether eEF1A mediates the effect of metarrestin on cancer cells, eEF1A was either overexpressed or reduced through siRNA silencing. […] Thus, eEF1A2 enhances PNC structures, but is alone not sufficient to induce significant formation of PNCs in PNC-negative cells. To evaluate the functional link between the phenotype of metarrestin-induced PNC disassembly and eEF1A2, PNC disassembly in wild type and eEF1A2-overexpressing cancer cells was analyzed. Cells with and without over expression of eEF1A2-HA (48 hours after transfection with an efficiency at around 70%, FIGS. 61 and 64) were treated with metarrestin at 10 concentrations, and PNC prevalence was evaluated at 63× magnification. […] To evaluate whether eEF1A2 indeed regulates the metastatic phenotype, PANC1 cells with (PANC1 eEF1A2 O.E.) or without (PANC1 control) overexpression of eEF1A2 were orthotopically injected into NSG mice. Six weeks after implantation, organs were subjected to histopathological evaluation.

In experiment [3] the test system is HeLa, PANC1 and PC3M cells; PANC1 xenograft tumor tissues. As to the kind of experiment: Nucleolar structure by electron microscopy and immunofluorescence in cancer cells and tumor tissues. The format is cell-based, human. As to the method: Representative electron micrographs are shown for HeLa cells (FIG. 21A; treated at 1 μM for 24 hours), primary pancreatic tumors (FIG. 21B), and liver metastases (FIG. 21C) from NSG PANC1 mice treated with vehicle (top) or 10 mg/kg metarrestin (bottom) for 7 days. […] Scale bar=1 μm.
100 nucleoli were randomly selected and analyzed to calculate nucleolar area as ((largest+shortest diameter)/2)^2×π). The comparison of mean nucleolar areas was performed using Mann Whitney U test, 2-tailed, n=4 animals per group.
To address the mechanisms by which metarrestin inhibits metastasis, cellular changes after metarrestin treatment were observed. Primary antibodies: 1:300 dilution for SH54 (anti-PTB antibody); 1:300 for Nopp140 (anti-human Nopp140 rabbit polyclonal serum RS8); 1:50 for UBF (F-9) (Santa Cruz Biotechnology); 1:100 for RPA194 (Santa Cruz Biotechnology); 1:100 for CUG-BP1 (3B1) (Santa Cruz Biotechnology); 1:10 for fibrillarin (Sigma Cat #: ANA-N); 1:1000 for SC35; 1:300 for paxillin (ab32084); 1:600 for vinculin (Sigma V9131). The fluorescein-conjugated secondary antibodies (Jackson ImmunoResearch) and ALEXA FLUOR antibodies (Thermofisher Scientific) were used at a dilution of 1:200. Samples were visualized on a Nikon ECLIPSE Ti-E inverted fluorescence microscope using NIS-Elements AR 3.2 software (Nikon).
The nucleolar disruption was reversible within 48 hours upon withdrawal of metarrestin (FIG. 47). Similar disruptions were observed among other treated cell lines, including PANC1 and PC3M cells (FIG. 48), primary tumor, and liver metastatic tissues in the PANC1 xenograft model (FIG. 21, right panels). […] The segregation of the nucleolar compartments observed by EM is believed to correspond to the nucleolar capping structures detected by immunofluorescence of nucleolar proteins (FIGS. 21A-21C, 23, and 50). […]

Experiment [4] has as its system eEF1A. As to the kind of experiment: Affinity purification with biotin-conjugated metarrestin and competition. It is filed as binding. The text has this: FIG. 35 is a Western blot illustrating that metarrestin effectively outcompeted recombinant eEF1A from binding to anchored biotinylated metarrestin-eEF1A complex. […] Increased eEF1A2 enhances PNCs and metastasis formation.

For experiment [5], the system named is PC3M-GFP-PTB cells. As to the kind of experiment: PNC prevalence / PNC disassembly in PC3M-GFP-PTB cells. It is filed as cell-based, human. From the text: FIG. 1 is a graph showing the concentration-response curve against PNC prevalence in PC3M (a metastatic prostate cancer cell line)-GFP (green fluorescent protein)-PTB (polypyrimidine tract-binding protein) cells (squares, PC3M, has a PNC prevalence of 75-85% in the absence of treatment) and cytotoxicity as measured by cellular ATP (CELLTITER GLO™) (circles). Representative PTB-GFP images for cells at the indicated concentrations (arrowheads indicate PNCs) (scale bar=5 μm) are shown in the three panels above the graph. The relative signal (%) is along the y-axis and Metarrestin [log M] is along the x-axis.
A metastatic prostate cancer cell line, PC3M, was developed in order to screen small molecules that effectively disassemble PNCs (see Pettaway, et al., “Selection of highly metastatic variants of different human prostatic carcinomas using orthotopic implantation in nude mice,” Clin. Cancer Res., (2): 1627-36 (1996), incorporated herein in its entirety). PC3M has a […] stably express GFP-PTB (polypyrimidine track binding protein) (FIG. 1, top panels), an essential component of PNCs (see Huang, et al., “The perinucleolar compartment and transcription,” Journal of Cell Biology, (143): 35-47 (1998), incorporated herein in its entirety). Compounds able to reduce PNC prevalence by 50% were filtered in secondary assays to eliminate those that induced apoptosis, DNA damage, generic cytotoxicity, or cell-cycle blockage (see Norton, et al., “Automated high-content screening for compounds that disassemble the perinucleolar compartment,” J Biomol Screen, (14): 1045-53 (2009) and Frankowski, et al., “Discovery and Development of Small Molecules That Reduce PNC Prevalence, in Probe Reports from the NIH Molecular Libraries Program, Bethesda (Md.).(2010), incorporated herein in their entirety). The remaining hits were evaluated for invasion inhibition through MATRIGEL gelatinous protein mixture and anchorage-independent growth inhibition using soft agar assays.

The structures appear in SMILES notation. Read-outs that look alike come from different tables or passages of the source. A value given as a limit tells only on which side of the number the result lay.

On to `N=c1c2c(-c3ccccc3)c(-c3ccccc3)n(Cc3ccccc3)c2ncn1[C@H]1CC[C@H](O)CC1` [metarrestin], for which the UBF distribution result in experiment [1] (1 μM) was “not changed”. Further, the UBF capping entry in experiment [1] (5 μM) was “did not become completely capped”. Also, in experiment [2], the “IC50 for PNC disassembly with increased expression of eEF1A2” value is on record as “increased the inhibitory concentration 50 (IC50)”. Moreover, the Nucleolar structure entry in experiment [3] (1 μM, electron microscopy) is given as “induced collapse of the nucleolus”. For the same compound, in experiment [3] (after 1 μM for 24 hours, HeLa cells), the “Time to reversal of nucleolar disruption upon withdrawal” value is not above 48 h. In addition, in experiment [3] (treated cell lines and cancer tissues, p<0.0001), the Nucleolar volume entry is “significantly reduced”. Further, in experiment [4], the “Binding to eEF1A (competition and proteomic analysis)” value is “metarrestin-binding protein”. In addition, in experiment [5] (1 μM), the “PNC disassembly and nucleolar distortion” value is listed as approximately 100%. In experiment [5] (Homo sapiens, FIG. 1), the IC90 is 750 nM. Also, the 50% inhibitory concentration (IC50) in experiment [5] (Homo sapiens, P3CM cells, read-out: PNC disassembling IC50) was determined as 390 nM; in experiment [5] (Homo sapiens, PC3M-GFP-PTB cells, read-out: IC50 for disruption of PNCs), 390 nM. Besides, the IC100 in experiment [5] (PC3M cells, 24 hours) worked out at 1 µM.
